Source: patent US6352958B1, “Cycloimido-substituted benzofused heterocyclic herbicides” (FMC Corporation, priority 1997, dated 2002)

Assays:
Type in all cases: in vivo
[1] = system: soybean (Glycine max var. Winchester); assay: Preemergence herbicidal activity, soybean; conditions: Rate of Application 0.3 Kg/Ha, examined after 12-17 days
[2] = system: wheat (Triticum aestivum var. Lew); assay: Preemergence herbicidal activity, wheat; conditions: Rate of Application 0.3 Kg/Ha, examined after 12-17 days
[3] = system: field corn (Zea mays var. Pioneer 3732); assay: Preemergence herbicidal activity, corn; conditions: Rate of Application 0.3 Kg/Ha, examined after 12-17 days
[4] = system: velvetleaf (Abutilon theophrasti); assay: Preemergence herbicidal activity, velvetleaf; conditions: Rate of Application 0.3 Kg/Ha, examined after 12-17 days
[5] = system: morningglory (Ipomea lacunosa or Ipomea hederacea); assay: Preemergence herbicidal activity, morningglory; conditions: Rate of Application 0.3 Kg/Ha, examined after 12-17 days
[6] = system: common chickweed (Stellaria media); assay: Preemergence herbicidal activity, chickweed; conditions: Rate of Application 0.3 Kg/Ha, examined after 12-17 days
[7] = system: common cocklebur (Xanthium strumarium L.); assay: Preemergence herbicidal activity, cocklebur; conditions: Rate of Application 0.3 Kg/Ha, examined after 12-17 days
[8] = system: blackgrass (Aloepecurus myosuroides); assay: Preemergence herbicidal activity, blackgrass; conditions: Rate of Application 0.3 Kg/Ha, examined after 12-17 days
[9] = system: green foxtail (Setaria viridis); assay: Preemergence herbicidal activity, green foxtail; conditions: Rate of Application 0.3 Kg/Ha, examined after 12-17 days
[10] = system: Johnsongrass (Sorghum halepense); assay: Preemergence herbicidal activity, johnsongrass; conditions: Rate of Application 0.3 Kg/Ha, examined after 12-17 days
[11] = system: soybean (Glycine max var. Winchester); assay: Postemergence herbicidal activity, soybean; conditions: rate of application 0.3 Kg/Ha, rated after 12-17 days
[12] = system: wheat (Triticum aestivum var. Lew); assay: Postemergence herbicidal activity, wheat; conditions: rate of application 0.3 Kg/Ha, rated after 12-17 days
[13] = system: field corn (Zea mays var. Pioneer 3732); assay: Postemergence herbicidal activity, corn; conditions: rate of application 0.3 Kg/Ha, rated after 12-17 days
[14] = system: velvetleaf (Abutilon theophrasti); assay: Postemergence herbicidal activity, velvetleaf; conditions: rate of application 0.3 Kg/Ha, rated after 12-17 days
[15] = system: morningglory (Ipomea lacunosa or Ipomea hederacea); assay: Postemergence herbicidal activity, morningglory; conditions: rate of application 0.3 Kg/Ha, rated after 12-17 days
[16] = system: common chickweed (Stellaria media); assay: Postemergence herbicidal activity, chickweed; conditions: rate of application 0.3 Kg/Ha, rated after 12-17 days
[17] = system: common cocklebur (Xanthium strumarium L.); assay: Postemergence herbicidal activity, cocklebur; conditions: rate of application 0.3 Kg/Ha, rated after 12-17 days
[18] = system: blackgrass (Aloepecurus myosuroides); assay: Postemergence herbicidal activity, blackgrass; conditions: rate of application 0.3 Kg/Ha, rated after 12-17 days
[19] = system: green foxtail (Setaria viridis); assay: Postemergence herbicidal activity, green foxtail; conditions: rate of application 0.3 Kg/Ha, rated after 12-17 days
[20] = system: Johnsongrass (Sorghum halepense); assay: Postemergence herbicidal activity, johnsongrass; conditions: rate of application 0.3 Kg/Ha, rated after 12-17 days

SMILES | PREEMERGENCE HERBICIDAL ACTIVITY (% CONTROL) SOY [1] | PREEMERGENCE HERBICIDAL ACTIVITY (% CONTROL) WHT [2] | PREEMERGENCE HERBICIDAL ACTIVITY (% CONTROL) CRN [3] | PREEMERGENCE HERBICIDAL ACTIVITY (% CONTROL) ABUTH [4] | PREEMERGENCE HERBICIDAL ACTIVITY (% CONTROL) IPOSS [5] | PREEMERGENCE HERBICIDAL ACTIVITY (% CONTROL) STEME [6] | PREEMERGENCE HERBICIDAL ACTIVITY (% CONTROL) XANPE [7] | PREEMERGENCE HERBICIDAL ACTIVITY (% CONTROL) ALOMY [8] | PREEMERGENCE HERBICIDAL ACTIVITY (% CONTROL) SETVI [9] | PREEMERGENCE HERBICIDAL ACTIVITY (% CONTROL) SORHA [10] | Postemergence herbicidal activity (% control) SOY [11] | Postemergence herbicidal activity (% control) WHT [12] | Postemergence herbicidal activity (% control) CRN [13] | Postemergence herbicidal activity (% control) ABUTH [14] | Postemergence herbicidal activity (% control) IPOSS [15] | Postemergence herbicidal activity (% control) STEME [16] | Postemergence herbicidal activity (% control) XANPE [17] | Postemergence herbicidal activity (% control) ALOMY [18] | Postemergence herbicidal activity (% control) SETVI [19] | Postemergence herbicidal activity (% control) SORHA [20]
CCN(CC)Cc1cc2c(Cl)ccc(-n3c(=O)cc(C(F)(F)F)n(C)c3=O)c2o1 [Compound 257] | 40% | 0% | 10% | 90% | 70% | 0% | 20% | 20% | 70% | 10% | 70% | 20% | 70% | 100% | 60% | 30% | 70% | 30% | 70% | 50%
Cn1c(C(F)(F)F)cc(=O)n(-c2c(F)cc(Br)c3oc(N)nc23)c1=O [Compound 98] | 50% | 40% | 80% | 80% | 75% | 70% | 60% | 10% | 30% | 65% | 40% | 10% | 50% | 60% | 20% | 5% | 20% | 5% | 40% | 20%
Cc1nc2c(-n3c(=O)cc(C(F)(F)F)n(C)c3=O)c(F)cc(Cl)c2o1 [Compound 1] | 100% | 85% | 90% | 100% | 100% | 100% | 100% | 90% | 100% | 95% | 95% | 65% | 80% | 100% | 100% | 90% | 100% | 70% | 80% | 80%
Cn1c(C(F)(F)F)cc(=O)n(-c2c(F)cc(Cl)c3oc(N)nc23)c1=O [Compound 38] | 60% | 50% | 80% | 100% | 100% | 0% | 70% | 30% | 75% | 60% | 70% | 35% | 60% | 100% | 100% | 0% | 45% | 20% | 40% | 50%
Cn1c(C(F)(F)F)cc(=O)n(-c2c(F)cc(Cl)c3[nH]c(C45CC6CC(CC(C6)C4)C5)nc23)c1=O [Compound 374] | 30% | 0% | 10% | 100% | 95% | 90% | 80% | 40% | 100% | 75% | 80% | 25% | 30% | 100% | 95% | 80% | 100% | 25% | 80% | 60%
Cc1nc2c(-n3c(=O)cc(C(F)(F)F)n(N)c3=O)c(F)cc(Cl)c2o1 [Compound 112] | 100% | 100% | 100% | 100% | 100% | 100% | 100% | 100% | 100% | 100% | 100% | 100% | 100% | 100% | 100% | 100% | 100% | 100% | 100% | 100%
Cn1c(C(F)(F)F)cc(=O)n(-c2c(F)cc(Cl)c3cc(CCC(=O)O)oc23)c1=O [Compound 262] | 90% | 40% | 40% | 100% | 100% | 100% | 100% | 50% | 100% | 70% | 95% | 60% | 80% | 100% | 100% | 95% | 95% | 50% | 100% | 80%
Cn1c(C(F)(F)F)cc(=O)n(-c2c(F)cc(Cl)c3[nH]c(C(F)(F)Cl)nc23)c1=O [Compound 366] | 10% | 10% | 0% | 70% | 20% | 0% | 10% | 0% | 50% | 40% | 70% | 30% | 80% | 95% | 80% | 30% | 100% | 30% | 50% | 50%
